# Source: PubChem BioAssay (NCI)
#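 Growth conditions: 96-well plates. Treatment: test compound, 48 hours, 5 concentrations. Analysis: linear interpolation between bracketing concentrations; unreached endpoints set to highest concentration. Here, GI50 denotes the concentration required for 50% inhibition of growth. TGI: concentration producing complete growth inhibition.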
# Columns and labels:
# Experiment in all cases: inhibition of tumour cell growth, NCI panel, 48 h
# [1] = system: SNB-75 CNS
# [2] = system: SF-295 CNS
# [3] = system: NCI-H522 lung
# [4] = system: IGROV1 ovarian
# [5] = system: ACHN renal
# [6] = system: COLO 205 colon
# [7] = system: DU-145 prostate
# [8] = system: CAKI-1 renal
# [9] = system: HCT-15 colon
# [10] = system: U251 CNS
Compound,GI50 [1],TGI [1],GI50 [2],TGI [2],GI50 [3],TGI [3],GI50 [4],TGI [4],GI50 [5],TGI [5],GI50 [6],TGI [6],GI50 [7],TGI [7],GI50 [8],TGI [8],GI50 [9],TGI [9],GI50 [10],TGI [10]
[N-]=[N+]=NCCCn1c2c(c3ccc([N+](=O)[O-])cc3c1=O)C(=O)c1cc(-c3ccccc3)ccc1-2,43.3 µM,> 100 µM,> 100 µM,> 100 µM,> 100 µM,> 100 µM,> 100 µM,> 100 µM,> 100 µM,> 100 µM,> 100 µM,> 100 µM,> 100 µM,> 100 µM,> 100 µM,> 100 µM,> 100 µM,> 100 µM,> 100 µM,> 100 µM
c1ccc(Oc2ccc(Nc3ncc(-c4ccccc4)o3)cc2)cc1,> 25 µM,> 25 µM,> 25 µM,> 25 µM,> 25 µM,> 25 µM,> 25 µM,> 25 µM,> 25 µM,> 25 µM,> 25 µM,> 25 µM,> 25 µM,> 25 µM,> 25 µM,> 25 µM,> 25 µM,> 25 µM,> 25 µM,> 25 µM
CCCCCCCCCCNCCSS(=O)(=O)O,2.23 µM,4.22 µM,1.83 µM,3.65 µM,2.09 µM,4.31 µM,4.82 µM,17.6 µM,10.1 µM,25.4 µM,13 µM,27.2 µM,1.82 µM,3.28 µM,14.5 µM,33.3 µM,3.97 µM,17 µM,1.99 µM,4.12 µM
COc1cc([N+](=O)[O-])c(S(=O)(=O)O)cc1-n1nc(C(=O)Nc2ccccc2)n[n+]1-c1cc(S(=O)(=O)[O-])c([N+](=O)[O-])cc1OC,–,> 100 µM,–,> 100 µM,–,> 100 µM,–,> 100 µM,–,> 100 µM,–,> 100 µM,–,> 100 µM,–,> 100 µM,–,> 100 µM,–,> 100 µM
